According to patent US9521845B2, “Beta-lactones as antibacterial agents” (LUDWIG-MAXIMILIANS-UNIVERSITÄT-MÜNCHEN, priority 2008, dated 2016):

Key:
[1] = tested on: bacterial proteomes; assay: ABPP labeling of bacterial proteomes, labeling profile; type: binding; conditions: 50 μM probe
Text: The library of beta-lactones to be tested comprised compounds with aliphatic or aromatic substitutions varying in length and branching. To evaluate the target selectivity, the beta-lactones were screened against several gram-positive and gram-negative bacterial proteomes including Pseudomonas putida, Listeria welshimeri, Bacillus licheniformis, Bacillus subtilis and Escherichia coli, which are phylogenetically related to pathogenic strains. In addition, mouse liver cytosol was included as an eukaryotic reference proteome. Initial labeling experiments were carried out by adding individual probes at 50 μM concentration to the proteome which is sufficient to achieve full saturation of most targets. […] As an example, labeling of L. welshimeri cytosolic and membrane proteomes as well as B. subtilis cytosolic proteome with a subset of the most complementary probes is shown in FIGS. 9A and 9B. […] Most of the targeted proteins were of low abundance as shown by the direct comparison of the relative intensities observed with Coomassie staining vs. fluorescence scanning (FIG. 11).
(§1) Proteome samples were adjusted to a final concentration of 1 mg protein/mL by dilution in PBS prior to probe labeling. Experiments for visualization by 1D SDS-PAGE were carried out in 43 μL total volume and those for affinity enrichment in 1892 μL total volume, such that once CC reagents were added, the total reaction volume was 50 μL and 2 mL, respectively. Reactions were initiated by addition of the probe and allowed to incubate for 60 min at room temperature. For heat controls the proteome was denatured with 1 μL of 43% SDS at 95° C. for 6 min and cooled to room temperature before the probe was applied. Following incubation, reporter tagged-azide reagents (13 μM rhodamine-azide for analytical or 20 μM rhodamine-biotin-azide for preparative scale) were added followed by 1 mM TCEP and 100 μM ligand. Samples were gently vortexed and the cycloaddition initiated by the addition of 1 mM CuSO4. The reactions were incubated at room temperature for 1 h (Speers, J. Amer. Chem. Soc. 125 (2003), 4686).

[2] = tested on: KAS II; assay: Competitive labeling with cerulenin; type: binding; conditions: 100 fold excess, 15 min prior to beta-lactone probe G2
Protocol: (§2) FIG. 13: Active site competition assays and IC50. A) Competition experiment with KAS II with and without 100 fold excess of cerulenin in presence of the beta-lactone probe G2. B) Competition experiments with several serine proteases with and without 100 fold excess of PMSF in presence of the corresponding beta-lactone probes (LWC: L. welshimeri cytosol, LWM: L. welshimeri membrane, BSC: B. subtilis cytosol). C) IC50 of 5 μM for SFGH. For a list of abbreviations, please refer to Example 6, Table 1. The term PNB is also referred to herein as PNBE.
(§3) In competitive assays, a 100 fold excess of PMSF or cerulenin was added to the proteome 15 min prior to beta-lactone addition.

[3] = tested on: LLO haemolytic activity of L. monocytogenes EGDe; assay: LLO haemolytic activity testing of culture supernatants; type: cell-based, Listeria monocytogenes EGDe
Protocol: Overnight cultures of L. monocytogenes EGDe were harvested by centrifugation and resuspended in an equal volume of fresh BHB medium. In 1.5 mL Eppendorf tubes, 400 μL of BHB medium were inoculated with 4 μL of the resuspended Listeria culture and 4 μL of a corresponding beta-lactone stock in DMSO. The final concentrations were 800 μM, 400 μM, 200 μM, 100 μM and DMSO as control. The amount of DMSO in all tests was 1% of the medium. After mixing, the test tubes were incubated under continuous shaking at 200 rpm at 37° C. for 16 h. Then, cells were centrifuged and the supernatants filtered sterile by passing them through a 0.2 μm pore size filter. Haemolytic activity of LLO in the culture supernatants was quantitatively investigated according to a method described in J. Food Safety 1998, 18: 197-203 (incorporated herein by reference) with some modifications. In Nunclon™ 96-well plates with round shaped wells 100 μL of serial dilutions of the supernatants in PBS were added per well and incubated with 100 μL of 3% SRBC (sheep red blood cells) resuspended in PBS for 15 min at 37° C. under gentle shaking. The 96-well plates were centrifuged at 600 rpm for 5 min and the minimum dilution at which intact blood cells began to form a pellet was recorded. Controls with no lactone were set 100%. Buffer only controls and pure BHB medium yielded no haemolysis.

[4] = target: T1, ClpP (Listeria monocytogenes serovar 1/2a, UniProt Q9RQI6); assay: In vivo labeling of Listeria proteomes; type: cell-based; conditions: living L. monocytogenes EGDe, cytosol, 2 h incubation
T1 construct: endogenous in cells; host or cells: living Listeria monocytogenes EGDe, stationary phase
T1 sequence (Q9RQI6 whole entry): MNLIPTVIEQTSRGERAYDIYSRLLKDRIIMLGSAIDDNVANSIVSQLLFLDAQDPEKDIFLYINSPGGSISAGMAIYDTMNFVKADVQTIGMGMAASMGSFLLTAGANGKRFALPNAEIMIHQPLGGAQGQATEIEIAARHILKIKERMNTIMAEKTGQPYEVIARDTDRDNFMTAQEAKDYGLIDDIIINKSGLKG
Protocol: For analytical and preparative in vivo studies, Listeria were grown to stationary phase and harvested by centrifugation at 4,000 rpm 1 h after entrance in the stationary phase (1.5 ml for analytical and 15 ml for preparative studies). The cell pellets were washed once with PBS and resuspended in 100 μL and 500 μL PBS for analytical and preparative studies, respectively. The cell suspensions were incubated for 2 h with varying concentrations of probe at room temperature. Probes were applied from DMSO stocks whereby DMSO never exceeded 2% in the final solution. For preparative experiments, 50 μM of the probes was added to the cells resuspended in PBS. After incubation, the cells were washed thoroughly three times with PBS to remove excess probe from the supernatant. Subsequently the cells were lysed in 100 μL (500 μL) PBS by sonication with a Bandelin Sonopuls with 3×20 sec. pulsed at 70% max. power. For analytical experiments 44 μL proteome were used to append a reporter tag via CC, such that once CC reagents were added, the total reaction volume was 50 μL. In preparative purposes the total volume of 500 μL it was consumed per experiment. Reporter tagged-azide reagents (13 μM rhodamine-azide for analytical or 20 μM rhodamine-biotin-azide for preparative scale) were added followed by 1 mM TCEP and 100 μM ligand. Samples were gently vortexed and the cycloaddition initiated by the addition of 1 mM CuSO4. The reactions were incubated at room temperature for 1 h. For analytical gel electrophoresis, 50 μL 2×SDS loading buffer were added and 50 μL applied on the gel. Fluorescence was recorded in a Fujifilm Las-3000 Fluoreszenz Darkbox with a Fujinon VRF 43LMD Lens, 605DF40 filter and 520 nm EPI excitation wavelength.

[5] = tested on: proteolysis abilities of Staphylococcus aureus; assay: Milk agar plate-based proteolysis assay; type: cell-based; conditions: for proteolytic activity of S. aureus: total amount of 250 nmol applied on Whatman Cards, 1% skim milk LB agar, 37° C. over night
Protocol: FIG. 6: Milk agar plate-based assay illustrating that beta-lactones have an effect on the proteolysis abilities of Staphylococcus aureus. 2.5 μL of S. aureus LB dilution (OD600=0.13 corresponding to approx. 1×10^8 cfu/ml) and 2.5 μL DMSO/beta-lactone in DMSO were applied on Whatman Cards placed on 1% skim milk LB agar plates and incubated at 37° C. over night. A) Direct comparison of beta-lactones as shown in FIG. 2 at a total amount of 250 nmol applied on Whatman Cards. B) Dose down with beta-lactones D3, E2 and G2 at applied concentrations of 100 mM, 50 mM, 25 mM, 12.5 mM, 6.25 mM and 0 mM (corresponding to total amounts of 250 nmol, 125 nmol, 62.5 nmol, 31.3 nmol, 15.6 nmol and 0 nmol, respectively). C) Proteolysis zone size plotted against the total amount of the respective beta-lactone.
2.5 μL of S. aureus LB dilution (OD600=0.13 corresponding to approx. 1×10^8 cfu/ml) and 2.5 μL DMSO/beta-lactone in DMSO were applied on Whatman Cards placed on 1% skim milk LB agar plates and incubated at 37° C. over night. FIG. 6A directly compares the β-lactones at a total amount of 250 nmol applied on Whatman Cards. […] For D3 and E2 almost no proteolysis is observed down to a total amount of 125 nmol of the respective beta-lactone. FIG. 6C illustrates that the proteolysis zone size plotted against the total amount of beta-lactone visualizes the strong effects particularly of D3 and E2.

[6] = tested on: haemolysis abilities of Staphylococcus aureus; assay: Blood agar plate-based haemolysis assay; type: cell-based; conditions: total amount of 250 nmol applied on Whatman Cards, 5% sheep blood agar, 37° C. over night
Protocol: FIG. 3: Blood agar plate-based assay illustrating that beta-lactones have an effect on the haemolysis abilities of Staphylococcus aureus. 2.5 μL of S. aureus LB dilution (OD600=0.13 corresponding to approx. 1×10^8 cfu/ml) and 2.5 μL DMSO/lactone in DMSO were applied on Whatman Cards placed on 5% sheep blood agar plates (Heipha Diagnostika, Eppelheim, Germany) and incubated at 37° C. over night. A) Direct comparison of beta-lactones as shown in FIG. 2 at a total amount of 250 nmol applied on Whatman Cards. B) Dose down with beta-lactone compounds D3, E2 and G2 at applied concentrations of 100 mM, 50 mM, 25 mM, 12.5 mM, 6.25 mM and 0 mM (corresponding to total amounts of 250 nmol, 125 nmol, 62.5 nmol, 31.3 nmol, 15.6 nmol and 0 nmol, respectively).
2.5 μl, of S. aureus LB dilution (OD600 0.13 corresponding to approx. 1×10^8 cfu/ml) and 2.5 μL DMSO/beta-lactone in DMSO were applied on Whatman Cards placed on 5% sheep blood agar plates (Heipha Diagnostika, Eppelheim, Germany) and incubated at 37° C. over night. FIG. 3A directly compares the β-lactones at a total amount of 250 nmol applied on Whatman Cards. […] For D3 almost no haemolysis is observed down to a total amount of 125 nmol lactone. FIG. 5 illustrates the haemolytic activity of beta-lactone compounds D3, E2 and G2 plotted against the total amount of the respective beta-lactone, whereby a haemolysis zone size of 1.5 mm was set as 100% haemolytic activity. The data shown in FIG. 5 has been corroborated by further experimental testing.
Haemolysis was tested on blood agar plates (5% sheep blood; Heipha Diagnostika, Eppelheim, Germany). Sterile circles of Whatman cards (No. Y) with 5 mm diameter were placed on agar plates and inoculated with 2.5 μL of the corresponding beta-lactone/DMSO and 2.5 μL stationary phase culture of S. aureus diluted to […]. The plates were incubated over night at 37° C. and the diameters of the zones around the bacterial colonies were precisely measured using a vernier caliper.

[7] = tested on: lipase/acylhydrolase (LipAc); assay: ABPP probe dose down in proteome, lipase/acylhydrolase labeling; type: binding; conditions: L. welshimeri proteome, concentration range 10 μM to 5 nM
Protocol: To estimate the strength of probe interactions with proteins in the proteome, we compared the reactivity profiles of selected beta-lactones across a broad concentration range from 10 μM to 5 nM.
as §1

[8] = tested on: serine proteases; assay: Competitive labeling with PMSF; type: binding; conditions: 100 fold excess, 15 min prior to beta-lactone probes
Protocol: as §2, §3

## C#CCCCC1CC(=O)O1 (stereo not shown) [A1, 4-(4-Pentyn-1-yl)oxetan-2-one]
[1]
  enzyme labeling in proteomes: poor in enzyme labeling

## C/C=C/C/C=C/CCC(=O)[C@H]1O[C@H]1C(N)=O [cerulenin]
[2]
  effect of pre-incubation on probe labeling of KAS II: prevented subsequent probe labeling

## C#CCCC[C@H]1OC(=O)[C@H]1C(C)(C)C (relative stereo) [L1, cis-3-dimethylethyl-4-(4-pentyn-1-yl)oxetan-2-one]
[1]
  enzyme labeling in proteomes: decreased the number of specific labeling events

## C#CCCC[C@@H]1OC(=O)[C@H]1CCCCCCCC(=O)Sc1ccccc1 (relative stereo) [N1, trans-S-phenyl 8-(2-oxo-4-(4-pentyn-1-yl)oxetan-3-yl)octanethioate]
[3]; Listeria monocytogenes, Erythrocyte, cultures grown 16 h with lactone, sheep red blood cells, read-out: EC50 of reduction of LLO haemolytic activity
  EC50: < 100 µM
[4]
  ClpP labeling (probe potency ranking): most potent probes

## C#CCCCC1OC(=O)C1c1ccc(OC)cc1 (stereo not drawn) [E2, trans-3-(4-methoxyphenyl)-4-(4-pentyn-1-yl)oxetan-2-one]
[5]; dose down 250-15.6 nmol
  total amount down to which almost no proteolysis is observed: 125 nmol
[5]
  proteolytic activity of S. aureus: strongly reduce
[6]
  haemolytic activity of S. aureus: strongly reduce

## C#CCCCC1OC(=O)C1(C)C (stereo not drawn) [M1, trans-3,3-dimethyl-4-(4-pentyn-1-yl)oxetan-2-one, reference compound]
[5]
  proteolytic activity of S. aureus: no effect
[3]; control probe
  effect on haemolysis: no effect
[3]; fourfold dilution of supernatant, even at 800 μM
  lysis of blood cells by culture supernatant: complete lysis
[6]
  haemolytic activity of S. aureus: no effect
[4]
  ClpP labeling (probe potency ranking): did not label and inhibit ClpP

## C#CCCC[C@@H]1OC(=O)[C@H]1c1ccc2ccccc2c1 (relative stereo) [P1, trans-3-(2-naphthyl)-4-(4-pentyn-1-yl)oxetan-2-one, reference compound]
[7]
  probe concentration down to which LipAc is labeled: 160 nM

## O=S(=O)(F)Cc1ccccc1 [PMSF]
[8]
  effect of pre-incubation on probe labeling of serine proteases: prevented subsequent probe labeling

## C#CCCCC1OC(=O)C12CCCCC2 (stereo not shown) [O1, 4-(4-pentyn-1-yl)oxetan-2-one-3-spirocyclohexane]
[1]
  enzyme labeling in proteomes: decreased the number of specific labeling events
